pIC50: −log10 of the molar value. Values joined by “and” are separate entries in the source; they are usually repeats but may differ in a detail not shown here. Equal values may be shown once.
Tests used:
[1] = target: T1, CYP2B6 (Homo sapiens, UniProt P20813); experiment: Reversible CYP inhibition in HLM, CYP2B6 (bupropion); assay type: in vitro ADME; settings: for enzyme activity remaining: CYP2B6, HLM
T1 construct: tissue Life Technologies (Durham, NC, USA); host or cells: human liver microsomes
T1 sequence (P20813 1-491): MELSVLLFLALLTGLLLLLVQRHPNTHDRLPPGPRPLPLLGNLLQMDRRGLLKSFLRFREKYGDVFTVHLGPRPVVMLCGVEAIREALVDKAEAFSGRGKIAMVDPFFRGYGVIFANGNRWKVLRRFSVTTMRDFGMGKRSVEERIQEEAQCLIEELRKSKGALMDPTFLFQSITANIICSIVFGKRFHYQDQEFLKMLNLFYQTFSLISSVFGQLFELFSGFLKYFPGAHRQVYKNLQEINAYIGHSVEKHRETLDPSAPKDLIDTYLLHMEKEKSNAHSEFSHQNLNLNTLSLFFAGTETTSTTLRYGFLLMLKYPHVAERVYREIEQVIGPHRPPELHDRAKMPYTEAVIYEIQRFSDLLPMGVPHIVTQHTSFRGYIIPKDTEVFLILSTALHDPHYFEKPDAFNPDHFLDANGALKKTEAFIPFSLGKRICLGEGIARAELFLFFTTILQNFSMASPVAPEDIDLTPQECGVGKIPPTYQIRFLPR
Description: The markers used to determine the activities of CYP isoforms were phenacetin O-deethylation for CYP1A2 (probe substrate: 50 µM phenacetin), bupropion hydroxylation for CYP2B6 (probe substrate: 70 µM bupropion), paclitaxel 6α-hydroxylation for CYP2C8 (probe substrate: 10 µM paclitaxel), diclofenac 4′-hydroxylation for CYP2C9 (probe substrate: 5 µM diclofenac), S-(+)-mephenytoin 4′-hydroxylation for CYP2C19 (probe substrate: 20 µM S-(+)-mephenytoin), dextromethorphan O-demethylation for CYP2D6 (probe substrate: 6 µM dextromethorphan), chlorzoxazone 6′-hydroxylation for CYP2E1 (probe substrate: 70 µM chlorzoxazone), and testosterone 6β-hydroxylation and midazolam 1′-hydroxylation for CYP3A4/5 (probe substrate: 45 µM testosterone and 5 µM midazolam). […] Alpha-naphthoflavone (0.04 µM), 2-phenyl-2-(1-piperidinyl)propane (5 µM), quercetin (1 µM), sulfaphenazole (0.5 µM), ticlopidine (4 µM), quinidine (0.2 µM), diethyldithiocarbamate (20 µM), and ketoconazole (0.05 µM) were used as positive inhibitors of CYP1A2, 2B6, 2C8, 2C9, 2C19, 2D6, 2E1, and 3A4, respectively. The vehicle control was prepared in the same composition as inhibitor solutions but free of inhibitors. The concentrations of probe substrates were close to Km values that were determined in-house and within the range recommended by the FDA ([Huang et al., 2007]). Reaction mixtures were incubated at 37°C for 5, 20, or 30 min, depending on the probe substrates of CYP isoforms. The reactions were terminated by adding cold acetonitrile containing IS, and the terminated incubation mixtures were centrifuged at 3,000 g for 10 min before LC-MS/MS analysis.

[2] = Human PK projection by allometric scaling; settings: allometric scaling with correction of MLP and fu
Excerpt: Translational prediction of human plasma total clearance (CL) and volume of distribution at steady state (Vss) was projected using the AS approach for different preclinical species (mice, rats, dogs, and monkeys). The mean value of unbound plasma fraction (fu) in animals was applied to transform pharmacokinetic parameters (Vss or CL) to the corresponding free drug clearance (CLu) and free drug volume of distribution (Vss,u). The CLu in preclinical species was scaled to CLu in humans according to the following equations with consideration of the maximum lifespan potential (MLP) as a correction factor according to the rule of exponents (RoEs) ([Mahmood and Balian, 1996]), and Vss,u in preclinical species was scaled to Vss,u in humans simply based on BW according to the following equations. Both CLu and Vss,u in humans were converted to CL and Vss using the mean value of fu in humans. CLu×MLP=a×BW^b, log (CLu×MLP)=log a+b log BW, Vss,u=a×BW^b, log (Vss,u)=log a+b log BW,
where BW represents the body weight of the standard species (0.02, 0.2, 10, 4, and 70 kg for mice, rats, dogs, cynomolgus monkeys, and humans, respectively), a represents allometric coefficients, and b is allometric exponents.

Which enzyme activity remaining ([1]; 0.4 μM) does the source give for `C[C@H](Nc1ncnc(N)c1C#N)c1cc2ncc(Cl)n2nc1-c1ccccc1` [Amdizalisib] here?
Its enzyme activity remaining is 100% and 98.9%.

And the enzyme activity remaining ([1]; 2 μM)?
The enzyme activity remaining was 96.2% and 92.1%.

And the enzyme activity remaining ([1]; 5 μM)?
Its enzyme activity remaining is 97.4% and 95.1%.

And the enzyme activity remaining ([1]; 10 μM)?
The enzyme activity remaining was 97.7% and 96.6%.

And the enzyme activity remaining ([1]; 25 μM)?
Its enzyme activity remaining is 87.6%.

What about the enzyme activity remaining ([1]; 50 μM) of the same molecule?
The enzyme activity remaining was 79.7% and 77.1%.

What about the pIC50 ([1]; HLM, reversible, without pre-incubation) of the same molecule?
The pIC50 was less than 4.30.

What about the “predicted human CL” value [2] of the same molecule?
The value was 2.57 mL/min/kg.
